The text below walks through data of US20260166162A1, “CARBON CHAIN SUBSTANCE FOR REGULATING TRANSMEMBRANE TRANSPORT AND FLUIDITY OF CELL MEMBRANES, AND PREPARATION AND USE THEREOF” (priority 2022, published 2026).

Common to all, as to type: cell-based
One assay deals with HIV pseudovirus (18A-41). The conditions noted are these: 293T cells pretreated 4 h, n=3.
The next assay deals with human pancreatic β-cells. Nature of the assay: Insulin secretion from human islet β cells (ELISA of supernatant). The conditions noted are these: 6 h. (In general: An ELISA detects its analyte on a solid surface through an enzyme-linked reagent.)
The subject of a further assay is Epithelial cells. Nature of the assay: Interaction of GFP-labelled complexes with cell membrane of epithelial cells (Example II-52, Table II-30). The conditions noted are these: GFP-labelled complex, epithelial cells pretreated 4 hours, n=3. In short, it runs like this:
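Water-soluble fatty acid complexes labelled with GFP were added to the medium of adhered epithelial cells, then the medium was replaced with plain DMEM. Membrane-associated green fluorescence intensity was quantified by image analysis, n=3.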

Where [1] appears, read: 100 μM, negative value = promotes infection.

Where two headings read alike, the source gives them in different places.

`CCC=CCC=CCC=CCC=CCC=CCCCC(=O)OCC(O)C1OC(=O)C(O)=C1O` (stereo not drawn) [Ascorbic Acid-EPA]: the “Inhibition rate (%)” value with HIV pseudovirus (18A-41) (2 nM) was 72.04 ± 6.02%; with HIV pseudovirus (18A-41) (5 nM), 68.76 ± 5.79%; in the assay on HIV pseudovirus (18A-41) (10 nM), 86.46 ± 3.84%; in the assay with HIV pseudovirus (18A-41) (50 nM), 97.33 ± 5.33%; in the assay with HIV pseudovirus (18A-41) (100 nM) it was 98.77 ± 3.22%; with HIV pseudovirus (18A-41) (1 μM), -82.83 ± 7.59%. Besides, the “Inhibition rate (%)” value with HIV pseudovirus (18A-41) (10 μM) was -64.54 ± 5.62%; in the assay on HIV pseudovirus (18A-41) (50 μM), 80.74 ± 4.76%; in the assay on HIV pseudovirus (18A-41) (setting [1]) it was 82.84 ± 4.75%.

Turning to `CCCCCCCC/C=C\CCCCCCCC(=O)OCCO` [Ethylene glycol-OA], the “Inhibition rate (%)” value in the assay on HIV pseudovirus (18A-41) (2 nM) was 82.74 ± 5.06%; in the assay with HIV pseudovirus (18A-41) (5 nM) it was 83.09 ± 3.25%; in the assay on HIV pseudovirus (18A-41) (10 nM), 89.89 ± 4.06%; in the assay on HIV pseudovirus (18A-41) (50 nM), 94.33 ± 6.32%; with HIV pseudovirus (18A-41) (100 nM), 93.46 ± 3.23%; with HIV pseudovirus (18A-41) (1 μM), -92.33 ± 2.66%. In addition, the figures for the “Inhibition rate (%)” value with HIV pseudovirus (18A-41) (10 μM), in the assay on HIV pseudovirus (18A-41) (50 μM) and in the assay with HIV pseudovirus (18A-41) (setting [1]) were -84.04 ± 6.24%, 79.46 ± 8.46% and 86.47 ± 5.86%, respectively.

`NC(CCCCNC(=O)CCCCCCCCCCCCCCCCCCC(=O)O)C(=O)O` (stereo not drawn) [Lys-eicosanedioic acid]: the “Insulin” value was found to be 0.34 ng/mL with human pancreatic β-cells (2 nM); 0.35 ng/mL in the assay with human pancreatic β-cells (5 nM); 0.42 ng/mL in the assay on human pancreatic β-cells (10 nM); 0.48 ng/mL in the assay with human pancreatic β-cells (50 nM); 1.44 ng/mL in the assay with human pancreatic β-cells (50 μM); 1.48 ng/mL with human pancreatic β-cells (100 μM).

`CCCCCCCCCC(=O)NCCCCC(N)C(=O)O` (stereo not drawn) [Lys-n-decanoic acid]: the “Insulin” value in the assay on human pancreatic β-cells (2 nM) was 0.45 ng/mL; in the assay with human pancreatic β-cells (5 nM) it was 0.47 ng/mL; in the assay with human pancreatic β-cells (10 nM) it was 0.56 ng/mL; in the assay on human pancreatic β-cells (50 nM) it was 0.60 ng/mL; with human pancreatic β-cells (50 μM) it was 1.53 ng/mL; in the assay with human pancreatic β-cells (100 μM) it was 1.63 ng/mL.

Turning to `CCCC(=O)OCC(N)C(=O)O` (stereo not drawn) [Ser-n-butyric acid], the “Insulin” value with human pancreatic β-cells (2 nM) was 0.41 ng/mL; with human pancreatic β-cells (5 nM), 0.39 ng/mL; with human pancreatic β-cells (10 nM) it was 0.49 ng/mL; with human pancreatic β-cells (50 nM), 0.53 ng/mL; in the assay with human pancreatic β-cells (50 μM), 1.42 ng/mL; in the assay with human pancreatic β-cells (100 μM) it was 1.51 ng/mL.

On to `CCCCCCCCCCCCCCCCCC(=O)OCC(N)C(=O)O` (stereo not drawn) [Ser-stearic acid], for which the “Insulin” value with human pancreatic β-cells (2 nM) is 0.28 ng/mL; with human pancreatic β-cells (5 nM), 0.30 ng/mL; in the assay with human pancreatic β-cells (10 nM), 0.41 ng/mL; in the assay with human pancreatic β-cells (50 nM) it was 0.48 ng/mL; in the assay with human pancreatic β-cells (50 μM), 1.38 ng/mL; with human pancreatic β-cells (100 μM), 1.41 ng/mL.

For the molecule `CCCCCCCCCCCCCCCCCCCC(=O)OC(C)C(N)C(=O)O` (stereo not drawn) [Thr-arachidic acid], the Mean fluorescence intensity in the assay on Epithelial cells (0 Hours after medium replaced) was determined as 109.4 ± 3.7; with Epithelial cells (2 Hours after medium replaced), 104.4 ± 5.4; with Epithelial cells (4 Hours after medium replaced), 91.5 ± 6.7; in the assay with Epithelial cells (8 Hours after medium replaced), 54.3 ± 7.2; in the assay with Epithelial cells (12 Hours after medium replaced), 41.4 ± 3.4; with Epithelial cells (24 Hours after medium replaced) it was 34.2 ± 5.2. Besides, the “Insulin” value in the assay on human pancreatic β-cells (2 nM) was 0.32 ng/mL; in the assay with human pancreatic β-cells (5 nM) it was 0.31 ng/mL; in the assay on human pancreatic β-cells (10 nM), 0.43 ng/mL; in the assay with human pancreatic β-cells (50 nM) it was 0.51 ng/mL; in the assay with human pancreatic β-cells (50 μM), 1.46 ng/mL; in the assay on human pancreatic β-cells (100 μM), 1.42 ng/mL.

Take `CCCCCC(=O)OC(C)C(N)C(=O)O` (stereo not drawn) [Thr-n-hexanoic acid]: the “Insulin” value was determined as 0.38 ng/mL in the assay with human pancreatic β-cells (2 nM); 0.37 ng/mL in the assay on human pancreatic β-cells (5 nM); 0.47 ng/mL in the assay on human pancreatic β-cells (10 nM); 0.54 ng/mL with human pancreatic β-cells (50 nM); 1.41 ng/mL in the assay on human pancreatic β-cells (50 μM); 1.46 ng/mL with human pancreatic β-cells (100 μM).
